#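 Dose response: 5 concentrations. Exposure: 48 h. Format: 96-well plates. Endpoint: linear interpolation; highest concentration if not reached. GI50 marks 50% less growth. TGI: total growth inhibition.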
# Columns and labels:
# Test in all cases: NCI tumour cell line growth inhibition, 48 h
# NCI-H23 lung = system: NCI-H23 lung
# NCI-H460 lung = system: NCI-H460 lung
# NCI-H522 lung = system: NCI-H522 lung
# NCI/ADR-RES ovarian = system: NCI/ADR-RES ovarian
# OVCAR-3 ovarian = system: OVCAR-3 ovarian
# OVCAR-4 ovarian = system: OVCAR-4 ovarian
# OVCAR-5 ovarian = system: OVCAR-5 ovarian
# OVCAR-8 ovarian = system: OVCAR-8 ovarian
# PC-3 prostate = system: PC-3 prostate
# RPMI-8226 leukemia = system: RPMI-8226 leukemia
# RXF 393 renal = system: RXF 393 renal
# SF-268 CNS = system: SF-268 CNS
# SF-295 CNS = system: SF-295 CNS
# SF-539 CNS = system: SF-539 CNS
# SK-MEL-2 melanoma = system: SK-MEL-2 melanoma
# SK-MEL-28 melanoma = system: SK-MEL-28 melanoma
# SK-MEL-5 melanoma = system: SK-MEL-5 melanoma
# SK-OV-3 ovarian = system: SK-OV-3 ovarian
# SN12C renal = system: SN12C renal
# SNB-19 CNS = system: SNB-19 CNS
# SNB-75 CNS = system: SNB-75 CNS
# SR leukemia = system: SR leukemia
# SW-620 colon = system: SW-620 colon
# T-47D breast = system: T-47D breast
# TK-10 renal = system: TK-10 renal
# U251 CNS = system: U251 CNS
# UACC-257 melanoma = system: UACC-257 melanoma
# UACC-62 melanoma = system: UACC-62 melanoma
# UO-31 renal = system: UO-31 renal
smiles,measurement,setting,value
COc1cccc(C(=O)c2sc(Nc3ccc(N4CCN(C(C)C)CC4)cc3)nc2N)c1,TGI,NCI-H23 lung,8.01 µM
same,GI50,NCI-H460 lung,0.92 µM
same,TGI,NCI-H460 lung,7.87 µM
same,GI50,NCI-H522 lung,3.94 µM
same,TGI,NCI-H522 lung,7.86 µM
same,GI50,NCI/ADR-RES ovarian,2.46 µM
same,TGI,NCI/ADR-RES ovarian,> 22.9 µM
same,GI50,OVCAR-3 ovarian,1.52 µM
same,TGI,OVCAR-3 ovarian,9.18 µM
same,GI50,OVCAR-4 ovarian,3.48 µM
same,TGI,OVCAR-4 ovarian,16.2 µM
same,GI50,OVCAR-5 ovarian,0.769 µM
same,TGI,OVCAR-5 ovarian,> 22.4 µM
same,GI50,OVCAR-8 ovarian,1.49 µM
same,TGI,OVCAR-8 ovarian,24.8 µM
same,GI50,PC-3 prostate,0.892 µM
same,TGI,PC-3 prostate,10.9 µM
same,GI50,RPMI-8226 leukemia,1.34 µM
same,TGI,RPMI-8226 leukemia,6.52 µM
same,GI50,RXF 393 renal,0.437 µM
same,TGI,RXF 393 renal,1.12 µM
same,GI50,SF-268 CNS,1.52 µM
same,TGI,SF-268 CNS,5.06 µM
same,GI50,SF-295 CNS,2.55 µM
same,TGI,SF-295 CNS,8.83 µM
same,GI50,SF-539 CNS,1.55 µM
same,TGI,SF-539 CNS,4.65 µM
same,GI50,SK-MEL-2 melanoma,1.8 µM
same,TGI,SK-MEL-2 melanoma,5.49 µM
same,GI50,SK-MEL-28 melanoma,1.85 µM
same,TGI,SK-MEL-28 melanoma,7.05 µM
same,GI50,SK-MEL-5 melanoma,1.33 µM
same,TGI,SK-MEL-5 melanoma,5.21 µM
same,GI50,SK-OV-3 ovarian,5.91 µM
same,TGI,SK-OV-3 ovarian,> 24.1 µM
same,GI50,SN12C renal,0.895 µM
same,TGI,SN12C renal,13.8 µM
same,GI50,SNB-19 CNS,1.04 µM
same,TGI,SNB-19 CNS,> 25 µM
same,GI50,SNB-75 CNS,2.02 µM
same,TGI,SNB-75 CNS,5.34 µM
same,GI50,SR leukemia,0.478 µM
same,TGI,SR leukemia,> 7.24 µM
same,GI50,SW-620 colon,0.853 µM
same,TGI,SW-620 colon,> 13.1 µM
same,GI50,T-47D breast,2.11 µM
same,TGI,T-47D breast,13.5 µM
same,GI50,TK-10 renal,1.34 µM
same,TGI,TK-10 renal,9.19 µM
same,GI50,U251 CNS,0.949 µM
same,TGI,U251 CNS,7.1 µM
same,GI50,UACC-257 melanoma,3.03 µM
same,TGI,UACC-257 melanoma,6.34 µM
same,GI50,UACC-62 melanoma,2.84 µM
same,TGI,UACC-62 melanoma,6.21 µM
same,GI50,UO-31 renal,1.4 µM
same,TGI,UO-31 renal,7.16 µM

# From PubChem BioAssay (NCI)
